# Experimental data published in the supplement of paper PMC10307832.
# What was measured:
# Assay in all cases: relative viability (nuclei count vs DMSO), 5 days (fraction); higher = more cells survive
# 4EGI-1 + Navitoclax = compound: O=C(O)C(Cc1ccccc1[N+](=O)[O-])=NNc1nc(-c2ccc(Cl)c(Cl)c2)cs1 (mixture of isomers) [4EGI-1] + CC1(C)CCC(c2ccc(Cl)cc2)=C(CN2CCN(c3ccc(C(=O)NS(=O)(=O)c4ccc(N[C@H](CCN5CCOCC5)CSc5ccccc5)c(S(=O)(=O)C(F)(F)F)c4)cc3)CC2)C1 [Navitoclax] (partner 0.5 µM)
# How it was run: (§1)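 Lung cancer cell lines were pin-tool dosed in 1536-well plates on the day after seeding, with either a lone drug or a fixed anchor-drug dose plus five library-drug doses (not always all listed) in √10 steps. Nuclei were counted on 4× images after 5 days. Relative viability is the ratio of treated-well to vehicle-well nuclei counts, with each value a median of duplicate plates.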
# 4EGI-1 + Decitabine = compound: O=C(O)C(Cc1ccccc1[N+](=O)[O-])=NNc1nc(-c2ccc(Cl)c(Cl)c2)cs1 (mixture of isomers) [4EGI-1] + Nc1ncn([C@H]2C[C@H](O)[C@@H](CO)O2)c(=O)n1 [Decitabine] (partner 2 µM)
# How it was run: as §1
# XMD8-85 + Foretinib = compound: CN1CCN(CC1)C2=CC(=C(C=C2)NC3=NC=C4C(=N3)N(C5=CC=CC=C5C(=O)N4C)C)OC [XMD8-85] + COc1cc2c(Oc3ccc(NC(=O)C4(C(=O)Nc5ccc(F)cc5)CC4)cc3F)ccnc2cc1OCCCN1CCOCC1 [Foretinib] (partner 0.25 µM)
# How it was run: as §1
# XMD8-85 + Decitabine = compound: CN1CCN(CC1)C2=CC(=C(C=C2)NC3=NC=C4C(=N3)N(C5=CC=CC=C5C(=O)N4C)C)OC [XMD8-85] + Nc1ncn([C@H]2C[C@H](O)[C@@H](CO)O2)c(=O)n1 [Decitabine] (partner 2 µM)
# How it was run: as §1
Cell Line,relative viability (4EGI-1 + Navitoclax; first compound 0.5 µM),relative viability (4EGI-1 + Navitoclax; first compound 5 µM),relative viability (4EGI-1 + Navitoclax; first compound 15.81 µM),relative viability (4EGI-1 + Navitoclax; first compound 50 µM),relative viability (4EGI-1 + Decitabine; first compound 0.5 µM),relative viability (4EGI-1 + Decitabine; first compound 5 µM),relative viability (4EGI-1 + Decitabine; first compound 15.81 µM),relative viability (4EGI-1 + Decitabine; first compound 50 µM),relative viability (XMD8-85 + Foretinib; first compound 0.08 µM),relative viability (XMD8-85 + Foretinib; first compound 0.253 µM),relative viability (XMD8-85 + Foretinib; first compound 0.8 µM),relative viability (XMD8-85 + Foretinib; first compound 2.53 µM),relative viability (XMD8-85 + Foretinib; first compound 8 µM),relative viability (XMD8-85 + Decitabine; first compound 0.08 µM),relative viability (XMD8-85 + Decitabine; first compound 0.253 µM),relative viability (XMD8-85 + Decitabine; first compound 0.8 µM),relative viability (XMD8-85 + Decitabine; first compound 2.53 µM),relative viability (XMD8-85 + Decitabine; first compound 8 µM),relative viability (4EGI-1 + Navitoclax; first compound 1.581 µM),relative viability (4EGI-1 + Decitabine; first compound 1.581 µM)
NCI-H1395,1.38,1.27,1.09,0.566,0.746,0.817,0.695,0.515,1.03,0.974,1.05,0.925,0.8,0.609,0.762,0.722,0.701,0.716,,
EPLC-272H,1.31,1.35,0.951,0.969,0.45,0.359,0.31,0.305,0.619,0.717,0.751,0.47,0.436,0.347,0.36,0.314,0.294,0.305,0.938,
PC-3 [JPC-3],0.82,0.765,,0.612,0.95,0.771,0.498,0.53,1.05,1.04,1.04,1.19,0.912,0.93,,0.8,1.06,0.745,0.753,
SW 1573,1.26,0.947,0.843,0.674,0.623,0.495,0.254,0.112,0.876,0.884,0.854,1,0.762,0.465,0.529,,0.522,0.338,0.927,0.427
NCI-H520,1.23,1.14,1.02,0.431,0.568,0.499,0.562,0.25,0.798,0.729,0.895,0.741,0.484,,0.506,0.496,0.528,0.429,1.11,0.499
NCI-H1944,1.19,1.07,0.969,0.94,0.502,0.427,0.404,0.344,,1.04,0.898,0.836,0.571,0.451,0.404,0.462,0.456,0.422,,
RERF-LC-KJ,0.902,0.858,0.632,0.706,0.828,0.609,0.444,0.285,0.84,0.762,0.877,0.877,0.849,,0.703,0.811,0.767,0.496,,
NCI-H2085,1.19,1.2,0.931,0.743,0.536,0.513,0.488,0.317,0.902,0.854,0.823,0.751,0.563,0.546,0.529,0.538,0.535,0.517,1.01,0.578
ChaGo-K-1,0.775,1.1,0.773,0.247,0.538,0.523,0.479,0.352,0.823,1.01,0.93,0.867,0.774,0.553,0.521,0.551,0.525,0.45,,0.511
NCI-H1650,1.23,0.932,0.354,0.286,0.37,0.421,0.256,0.293,1.12,1.19,1.17,0.863,0.32,0.539,0.414,0.487,0.374,0.371,,
NCI-H441,0.467,0.449,0.511,0.203,0.262,0.251,0.244,0.18,1.11,0.971,1.15,1.13,0.644,0.256,0.245,0.256,0.261,0.205,0.552,0.258
NCI-H1437,1.19,1.04,0.395,0.178,0.58,0.544,0.435,0.221,1.3,1.28,1.32,1.08,0.867,0.641,0.534,0.596,,0.501,1,0.593
LU99A,0.765,0.87,0.986,0.428,0.879,0.83,0.851,0.508,0.768,,0.761,0.854,0.597,0.919,0.86,1.08,0.769,0.694,,0.699
NCI-H2347,0.972,0.776,0.861,0.721,0.68,0.569,0.586,0.543,0.75,0.836,0.829,1.07,0.758,0.599,0.619,0.583,,0.531,0.586,0.649
EKVX,1.09,0.911,0.803,0.603,0.386,0.371,0.276,0.319,0.716,0.864,0.836,0.971,0.664,0.536,0.32,0.33,0.61,0.328,0.77,
H3255,0.587,0.557,0.137,0.368,0.684,0.638,,0.594,1.03,0.917,0.892,0.931,0.627,0.838,0.682,0.977,0.316,0.358,0.477,
NCI-H1793,0.676,0.463,0.54,0.388,0.557,0.442,0.427,0.238,,0.668,0.681,0.783,0.594,,0.473,0.482,0.575,0.583,0.49,0.333
